The source of these data is patent publication US9789181B2, “PAN-DR binding polypeptides and uses thereof” (Epimmune Inc., priority 2009, dated 2017).

Assay [1] has as its target purified HLA DRB1 *0401 (Homo sapiens, UniProt P01903+P01911, A100K/A169T/F76Y/I96L/K127E/L162R/M171V/N62H/P40V/Q125Y/R42H/S133A/S149N/S66Y/V115G/V209L/W38E). Nature of the assay: IC50nM to purified HLA | DRB1 *0401. How it is done:
(§1) Table printed on a drawing sheet, FIG. 1
Head of the field: IC50nM to purified HLA | DRB1 *0401
(§2) First copying reader's note: The comma is the decimal sign and the point a thousands separator (e.g. 21.831); some values are printed bold or italic and some SEQ ID NOs underlined, with no legend on the sheet.
Where the first naming reader finds the target: head: IC50nM to purified HLA | DRB1 *0401

The target in assay [2] is purified HLA DRB5 *0101 (Homo sapiens, UniProt P01903+Q30154). The assay can be described thus: IC50nM to purified HLA | DRB5 *0101. How it is done: as §1
Head of the field: IC50nM to purified HLA | DRB5 *0101
as §2
Where the first naming reader finds the target: head: IC50nM to purified HLA | DRB5 *0101

In assay [3] the target is purified HLA DRB1 *0901 (Homo sapiens, UniProt P01903+P01911, A100R/A103E/D57H/D86V/F55Y/F60I/F76Y/I96F/K127E/L162R/M171V/P40D/Q125H/Q99R/R33Q/R42F/S133A/S66N/T210M/V115G/W38K/Y107V/Y59G/Y89S). The assay can be described thus: IC50nM to purified HLA | DRB1 *0901. As for the experimental part:
as §1
Head of the field: IC50nM to purified HLA | DRB1 *0901
as §2
Where the first naming reader finds the target: head: IC50nM to purified HLA | DRB1 *0901

Assay [4] deals with purified HLA DRB1 *1501 (Homo sapiens, UniProt P01903+P01911). The assay can be described thus: IC50nM to purified HLA | DRB1 *1501. As for the experimental part:
as §1
(§3) Head of the field: IC50nM to purified HLA | DRB1 *1501
as §2
(§4) Where the first naming reader finds the target: head: IC50nM to purified HLA | DRB1 *1501

The target in assay [5] is purified HLA DRB1 *0404 (Homo sapiens, UniProt P01903+P01911, A100R/A169T/F76Y/I96L/K127E/L162R/M171V/N62H/P40V/Q125Y/R42H/S133A/S149N/S66Y/V209L/W38E). Nature of the assay: IC50nM to purified HLA | DRB1 *0404. As for the experimental part: as §1
(§5) Head of the field: IC50nM to purified HLA | DRB1 *0404
as §2
(§6) Where the first naming reader finds the target: head: IC50nM to purified HLA | DRB1 *0404

In assay [6] the target is purified HLA DRB4 *0101 (Homo sapiens, UniProt P01903+P13762, G164S). The assay can be described thus: IC50nM to purified HLA | DRB4 *0101. How it is done:
as §1
(§7) Head of the field: IC50nM to purified HLA | DRB4 *0101
as §2
(§8) Where the first naming reader finds the target: head: IC50nM to purified HLA | DRB4 *0101

Assay [7] concerns the target purified HLA DRB1 *1101 (Homo sapiens, UniProt P01903+P01911, A100R/A169T/A87E/I96F/K41T/L162R/M171V/P40S/Q125H/Q178H/Q39Y/Q99D/R42S/S66Y/T262R/V115G/W38E). The assay can be described thus: IC50nM to purified HLA | DRB1 *1101. How it is done: as §1
Head of the field: IC50nM to purified HLA | DRB1 *1101
as §2
Where the first naming reader finds the target: head: IC50nM to purified HLA | DRB1 *1101

Assay [8] concerns the target purified HLA DRB1 *0405 (Homo sapiens, UniProt P01903+P01911, A100R/A169T/D86S/F76Y/I96L/K127E/L162R/M171V/N62H/P40V/Q125Y/R42H/S133A/S149N/S66Y/V115G/V209L/W38E). Nature of the assay: IC50nM to purified HLA | DRB1 *0405. How it is done:
as §1
Head of the field: IC50nM to purified HLA | DRB1 *0405
as §2
Where the first naming reader finds the target: head: IC50nM to purified HLA | DRB1 *0405

Assay [9] concerns the target purified HLA DRB1 *0101 (Homo sapiens, UniProt P01903+P01911, A100R/D57E/F55L/F60I/F76Y/I96L/L162R/M171V/P40L/Q125E/R42F/V115G/Y59C). Nature of the assay: IC50nM to purified HLA | DRB1 *0101. How it is done:
as §1
(§9) Head of the field: IC50nM to purified HLA | DRB1 *0101
as §2
(§10) Where the first naming reader finds the target: head: IC50nM to purified HLA | DRB1 *0101

Assay [10] deals with purified HLA DRB1 *1302 (Homo sapiens, UniProt P01903+P01911, A100E/A169T/K41T/L162R/M171V/P40S/Q125H/Q178H/Q39Y/Q99D/R42S/S66N/T262R/V115G/W38E/Y61H). The assay can be described thus: IC50nM to purified HLA | DRB1 *1302. As for the experimental part:
as §1
Head of the field: IC50nM to purified HLA | DRB1 *1302
as §2
Where the first naming reader finds the target: head: IC50nM to purified HLA | DRB1 *1302

The target in assay [11] is purified HLA DRB1 *0701 (Homo sapiens, UniProt P01903+P01911, A100R/A102G/A103Q/D57E/D86V/E43K/F76Y/K127E/L162R/M171V/P40G/Q125H/Q99D/R33Q/R42Y/R54Q/S133A/S66F/T210M/V115G/Y107V/Y59L/Y89S). Nature of the assay: IC50nM to purified HLA | DRB1 *0701. As for the experimental part: as §1
(§11) Head of the field: IC50nM to purified HLA | DRB1 *0701
as §2
(§12) Where the first naming reader finds the target: head: IC50nM to purified HLA | DRB1 *0701

In assay [12] the target is purified HLA DRB1 *0301 (Homo sapiens, UniProt P01903+P01911, A100K/A102G/A103R/A169T/F55Y/I96L/K41T/L162R/M171V/P40S/Q125H/Q178H/Q39Y/R42S/S66N/T106N/T262R/W38E/Y61H). Nature of the assay: IC50nM to purified HLA | DRB1 *0301. As for the experimental part:
as §1
(§13) Head of the field: IC50nM to purified HLA | DRB1 *0301
as §2
(§14) Where the first naming reader finds the target: head: IC50nM to purified HLA | DRB1 *0301

Assay [13] concerns the target purified HLA DRB1 *0802 (Homo sapiens, UniProt P01903+P01911, A100R/A103L/A169T/F76Y/H45Y/I96F/K41T/L162R/M171V/P40S/Q125H/Q178H/Q39Y/Q99D/R218S/R42G/S66Y/V115G/W38E). The assay can be described thus: IC50nM to purified HLA | DRB1 *0802. How it is done: as §1
(§15) Head of the field: IC50nM to purified HLA | DRB1 *0802
as §2
(§16) Where the first naming reader finds the target: head: IC50nM to purified HLA | DRB1 *0802

Assay [14] concerns the target HLA DRB1 *0404 (Homo sapiens, UniProt P01903+P01911, A100R/A169T/F76Y/I96L/K127E/L162R/M171V/N62H/P40V/Q125Y/R42H/S133A/S149N/S66Y/V209L/W38E). The assay can be described thus: IC50nM to purified HLA | DRB1 *0404. How it is done:
(§17) Table printed on a drawing sheet, FIG. 1 (contd.)
as §5
(§18) First copying reader's note: Continued from an earlier sheet of FIG. 1; decimal commas as printed, analog names encode substituted residues and positions, and some values are printed in italics or bold and some SEQ ID NOs underlined without a legend on this sheet.
as §6

Assay [15] concerns the target HLA DRB1 *0802 (Homo sapiens, UniProt P01903+P01911, A100R/A103L/A169T/F76Y/H45Y/I96F/K41T/L162R/M171V/P40S/Q125H/Q178H/Q39Y/Q99D/R218S/R42G/S66Y/V115G/W38E). Nature of the assay: IC50nM to purified HLA | DRB1 *0802. As for the experimental part: as §17, §15, §18, §16
Assay [16] has as its target HLA DRB1 *1501 (Homo sapiens, UniProt P01903+P01911). The assay can be described thus: IC50nM to purified HLA | DRB1 *1501. As for the experimental part:
as §17, §3, §18, §4

Assay [17] addresses HLA DRB1 *0301 (Homo sapiens, UniProt P01903+P01911, A100K/A102G/A103R/A169T/F55Y/I96L/K41T/L162R/M171V/P40S/Q125H/Q178H/Q39Y/R42S/S66N/T106N/T262R/W38E/Y61H). The assay can be described thus: IC50nM to purified HLA | DRB1 *0301. As for the experimental part: as §17, §13, §18, §14
The target in assay [18] is HLA DRB4 *0101 (Homo sapiens, UniProt P01903+P13762, G164S). The assay can be described thus: IC50nM to purified HLA | DRB4 *0101. How it is done: as §17, §7, §18, §8
In assay [19] the target is HLA DRB1 *0701 (Homo sapiens, UniProt P01903+P01911, A100R/A102G/A103Q/D57E/D86V/E43K/F76Y/K127E/L162R/M171V/P40G/Q125H/Q99D/R33Q/R42Y/R54Q/S133A/S66F/T210M/V115G/Y107V/Y59L/Y89S). Nature of the assay: IC50nM to purified HLA | DRB1 *0701. How it is done: as §17, §11, §18, §12
Assay [20] has as its target HLA DRB1 *0101 (Homo sapiens, UniProt P01903+P01911, A100R/D57E/F55L/F60I/F76Y/I96L/L162R/M171V/P40L/Q125E/R42F/V115G/Y59C). Nature of the assay: IC50nM to purified HLA | DRB1 *0101. How it is done:
as §17, §9, §18, §10

Where no end group is shown, it is not given here.

In general, IC50 refers to the midpoint of a concentration-inhibition curve.

Sequence of purified HLA DRB1 *1101 (P01903 26-254 limits assumed, other chains not shown): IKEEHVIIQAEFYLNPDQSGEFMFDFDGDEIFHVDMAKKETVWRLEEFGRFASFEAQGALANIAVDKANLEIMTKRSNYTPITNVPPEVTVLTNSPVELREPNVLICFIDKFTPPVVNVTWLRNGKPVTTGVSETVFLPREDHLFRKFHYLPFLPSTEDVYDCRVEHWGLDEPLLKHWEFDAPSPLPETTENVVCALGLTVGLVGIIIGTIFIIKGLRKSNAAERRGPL
Sequence of purified HLA DRB4 *0101 (P01903 26-254 limits assumed): as the sequence (P01903 26-254 limits assumed, other chains not shown) above
Sequence of purified HLA DRB4 *0101 (P13762 whole entry G164S): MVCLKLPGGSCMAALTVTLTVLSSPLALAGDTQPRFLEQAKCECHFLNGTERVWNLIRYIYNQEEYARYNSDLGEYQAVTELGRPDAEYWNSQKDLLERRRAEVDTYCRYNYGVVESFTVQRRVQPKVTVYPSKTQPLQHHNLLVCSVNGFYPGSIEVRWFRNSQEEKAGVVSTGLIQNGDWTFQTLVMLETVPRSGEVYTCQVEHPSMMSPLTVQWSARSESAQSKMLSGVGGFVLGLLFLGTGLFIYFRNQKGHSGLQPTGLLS
Sequence of purified HLA DRB1 *1302 (P01903 26-254 limits assumed, other chains not shown): as the sequence (P01903 26-254 limits assumed, other chains not shown) above
Sequence of purified HLA DRB1 *0301 (P01903 26-254 limits assumed, other chains not shown): as above
Sequence of HLA DRB4 *0101 (P01903 26-254 limits assumed): as the sequence (P01903 26-254 limits assumed, other chains not shown) above
Sequence of HLA DRB4 *0101 (P13762 whole entry G164S): as the sequence (P13762 whole entry G164S) above
Sequence of HLA DRB1 *0301 (P01903 26-254 limits assumed, other chains not shown): as the sequence (P01903 26-254 limits assumed, other chains not shown) above

Consider AAAFFVAAFTLKADA [SEQ ID NO: 18], for which the concentration for half-maximal inhibition (IC50) is 0.0045 µM in [1]; 0.0094 µM in assay [2]; 0.113 µM in assay [3]; 0.066 µM in [4]; 0.0061 µM in assay [5]; 12.5 µM in assay [6]. For the same molecule, the results for the IC50 in [7], in [8] and in assay [9] were 0.057 µM, 0.0084 µM and 0.043 µM, respectively.

As to `CC(C)C[C@H](NC(=O)[C@@H](NC(=O)[C@H](Cc1c[nH]c2ccccc12)NC(=O)[C@H](C)NC(=O)[C@H](C)NC(=O)[C@@H](NC(=O)[C@H](Cc1ccccc1)NC(=O)[C@H](CCCCN)NC(=O)[C@H](C)N)C(C)C)[C@@H](C)O)C(=O)N[C@@H](CCCCN)C(=O)N[C@@H](C)C(=O)N[C@@H](C)C(=O)N[C@@H](C)C(=O)O` [SEQ ID NO: 3], the concentration for half-maximal inhibition (IC50) in assay [1] is 0.0014 µM; in [2], 0.019 µM; in [3], 0.05 µM; in [4], 0.037 µM; in assay [10], 0.367 µM; in assay [5] it was 0.00079 µM. The IC50 amounted to 0.447 µM in assay [6]; 0.0091 µM in assay [7]; 0.097 µM in [11]; 0.032 µM in [8]; 0.289 µM in assay [12]; 0.004 µM in assay [9]. The same molecule showed an IC50 in assay [13] of 0.0095 µM.

AAAIFVAAWTLKAAA [SEQ ID NO: 68]: the IC50 in [14] came out at 0.0016 µM; in assay [15] it was 0.014 µM; in assay [16], 0.0073 µM; in assay [17] it was 0.393 µM; in assay [18] it was 0.124 µM; in assay [19], 0.075 µM. Further, the midpoint of inhibition in assay [20], the IC50, lay at 0.004 µM.

Regarding AAAFFVAAWTLKADA [SEQ ID NO: 16], the IC50 in assay [1] was determined as 0.0053 µM; in [3] it was 0.032 µM; in assay [4] it was 0.064 µM; in assay [10], 7.05 µM; in assay [5] it was 0.0027 µM; in assay [7], 0.065 µM. The 50% inhibitory concentration (IC50) in [11] came out at 0.091 µM; in [8] it was 0.022 µM; in assay [9] it was 0.0072 µM; in assay [13], 0.02 µM.
